From US20100113268A1, “SYNERGISTIC ACTIVE COMPOUND COMBINATIONS” (priority 2006, published 2010)

Test system: Meloidogyne incognita
Assay: Meloidogyne incognita test (MELGIN), gall formation on lettuce roots in soil
Assay type: in vivo
Details: single active compound, 100% = no galls, 0% = galls as untreated control
Protocol: Meloidogyne incognita Test (MELGIN)
To produce a suitable preparation of active compound, 1 part by weight of active compound is mixed with the stated amounts of solvent and emulsifier, and the concentrate is diluted with water to the desired concentration.
Vessels are filled with soil, solution of active compound, Meloidogyne incognita egg/larvae suspension and lettuce seeds. The lettuce seeds germinate and plants develop. On the roots, galls are formed.
After the desired period of time, the nematicidal action is determined in % by the formation of galls. 100% means that no galls have been found; 0% means that the number of galls on the treated plants corresponds to that of the untreated control.

In the case of `CN/C(=N\[N+](=O)[O-])NCc1cnc(Cl)s1` [Clothianidin], the “Kill in % after 21 d” value (2 ppm) is reported as 0%.
For `O=[N+]([O-])/N=C1\NCCN1Cc1ccc(Cl)nc1` [Imidacloprid], the “Kill in % after 21 d” value (2 ppm) was 0%.
`CNC(=O)O/N=C(\SC)C(=O)N(C)C` [Oxamyl, oxamyl] was tested, and the “Kill in % after 21 d” value (0.125 ppm) was 24%.
